Experimental data taken from patent US20230035491A1, “METHODS, KITS AND COMPOSITIONS FOR REDUCING CARDIOTOXICITY ASSOCIATED WITH CANCER THERAPIES” (Baruch S. Blumberg Institute, priority 2019, published 2023).
Structures can show the parent of a compound that is named as a salt.

Columns and labels:
iPSC-CM = test: CellTiter-Glo luminescent cell viability assay, iPSC-derived cardiomyocytes; type: cell-based; conditions: 5 μM Dox plus 50 μM compound vs Dox alone
[1] = system: breast cancer cell lines (BCa); test: CellTiter-Glo luminescent cell viability assay, breast cancer cell lines; type: cell-based; conditions: 5 μM Dox plus 50 μM compound vs Dox alone
[2] = system: Isolated canine cardiac myocytes; test: DOX-induced apoptosis of isolated canine cardiac myocytes; type: cell-based; conditions: 24 hours
[3] = system: breast cancer cell line Py8119; test: Py8119 cell proliferation by cell number using methylene blue; type: cell-based; conditions: Ranolazine 0.156 um to 20 um, alone or with 5 uM Dox
Experimental: The breast cancer cell line Py8119 was treated with either increasing doses of Ranolazine (0.156 um to 20 um) or with the addition of doxorubicin. (5 uM Dox). Cell proliferation was established by cell number using methylene blue.

CCR5, CCL3, CCL5 = system: CCR5, CCL3, CCL5; design: species or system human
Experimental: FIGS. 4a through 4f show myocardial biopsies from patients with either doxorubicin-induced cardiomyopathy or donor control heart. […] Samples were obtained from the Sydney heart bank. Biopsies were obtained at the time of transplant for the doxorubicin affected hearts. […] Heart biopsies were fixed in paraformaldehyde overnight prior to being embedded in paraffin blocks. Blocks were sectioned at […]. After deparaffinization and rehydration, antigen retrieval was performed in Tris buffer (pH 9) on the resulting sections. After blocking, sections were incubated with an antibody against CCR5, CCL3, or CCL5. Anti-CCR5 antibody binding was visualized using an HRP-conjugated second antibody and NOVA red substrate. Haematoxylin was used for nuclear visualization.

[4] = Chronic DOX model, cardiac function by echocardiography; type: in vivo; conditions: female mice, DOX 8×3 mg/kg over 2 weeks; 6 and 8 weeks after first injections; vs saline
Experimental: Female mice (n=10) were treated with a chronic regimen of DOX (8×3 mg/kg over 2 weeks) and cardiac function assessed by echocardiography at 6 and 8 weeks after the first injections. Echocardiographic imaging was employed using the Vevo 2100 preclinical high-frequency ultrasound system (Visualsonics, Toronto, Canada). M-mode analysis of the resulting images provided indices of cardiac systolic and diastolic function. For FIG. 5a, the ejection fraction is the percentage of the left ventricular volume expelled with each cardiac contraction. For FIG. 5b, the ESD is the […]. For FIG. 5c, the ESV is the end systolic volume or the volume of the heart at the end of contraction (systole). For FIG. 5d, the PWs is the posterior wall thickness at end of systole or the thickness of the myocardium at maximal ventricular contraction. All data are compared to the saline treated group and represent mean+/−SEM, p<0.01.

CCR5 = CCR5 immunostaining of myocardium after chronic regimen of DOX; type: in vivo, mice; conditions: DOX 8×3 mg/kg IP, excised after 8 weeks; vs saline
Experimental: Mice were treated with a chronic regimen of DOX (8×3 mg/kg, IP, n=12) or saline (n=10), excised after 8 weeks and fixed in paraformaldehyde overnight before being embedded in paraffin blocks. Blocks were sectioned (5 μm) and, after deparaffinization and rehydration, antigen retrieval was performed in Tris buffer (pH 9). After blocking, sections were incubated with an antibody against CCR5. Anti-CCR5 antibody binding was visualized using an HRP-conjugated second antibody and Nova red substitute. Haematoxylin was used for nuclear visualization.

miRNAs targeting CCR5 = test: miRNA expression profiles of hearts after acute doxorubicin regimen (Illumina miRNA arrays); type: in vivo, rats; conditions: acute doxorubicin 1x 20 mg/kg IP, n=6, vs saline
From the text: In silico analysis using the miRdb database (www.mirdb.org) identified a number of miRNAs that could potentially regulate translation of CCR5 in rats (see X-axis for identification of individual miRNAs). […] Data rare represented as fold change to saline treated rats and shown as mean+/−SEM, * p<0.01.

[5] = system: BCa cells (SUM-159, FC-IBC-02, MDA-MB-231); test: CCR5 expression in BCa cells grown in doxorubicin, flow cytometry; type: cell-based; conditions: 10-40 nmol/L doxorubicin for up to 80 days vs untreated
Experimental: BCa cells were grown in vitro under standard conditions for control (“solid bar”) or DOX treatment (“non-solid bar”) for up to 80 days. SUM-159 cells were grown in 10 nmol/L doxorubicin for 1 month, then 20 nmol/L doxorubicin for 1 month, and then 40 nmol/L doxorubicin for 3 weeks, prior to analysis. FC-IBC-02 cells were grown in 40 nmol/L doxorubicin for 1 month prior to analysis. MDA-MB-231 cells were grown in 20 nmol/L doxorubicin for 1 month then 40 nmol/L doxorubicin for 3 weeks prior to analysis. At the conclusion of the 80 days, surviving cells were harvested and pelleted by centrifugation. Cells were suspended in PBS containing normal mouse IgG and rat anti-mouse Fcg III/II receptor antibody to block nonspecific binding. Cells were exposed allophycocyanin (APC)-labeled CCR5 antibody for 1 hour at 4° C. After washing, analysis of CCR5 expression on cell was conducted on FACSCalibur flow cytometer (BD Biosciences). The data was analyzed with FlowJo software (Tree Star, Inc.). […] Data are % cells expressing CCR5 (mean of n=3 determinations).

cardiac progenitor iPSCs [6] = test: DOX killing and CCR5 expression in cardiac progenitor iPSCs, propidium iodide / flow cytometry; type: cell-based
Experimental: Some cells were suspended in PBS containing normal mouse IgG and rat anti-mouse Fcg III/II receptor antibody. Cells were exposed allophycocyanin (APC)-labeled CCR5 antibody for 1 hour at 4° C. After washing, analysis of CCR5 expression on cell was conducted on FACSCalibur flow cytometer (BD Biosciences). The data was analyzed with FlowJo software (Tree Star, Inc.). […] As such, CCR5+ cardiac progenitor cells are more prone to DOX induced cell death from than their CCR5− counterparts.

[7] = Survival of doxorubicin treated mice over 90 days; type: in vivo
From the text: Survival was documented over the first 90 days after the beginning of treatment.

[8] = system: CCR5 ligands CCL3, CCL5, CCL4; conditions: doxorubicin treated patients (n=7) vs donor controls (n=9); cited from earlier work
[9] = system: CCR5, CCL3/MIP-la, CCL5/RANTES; conditions: chronic or acute DOX regimen vs saline; cited from earlier work
SUM-159 cells = test: BCa lung metastasis after intracardiac injection of SUM-159 Luc2-eGFP cells, bioluminescence imaging; type: in vivo, NOD/SCID mice; conditions: Maraviroc 8 mg/kg every 12 hr oral gavage vs vehicle; n=6
Experimental: SUM-159 cells expressing Luc2-eGFP were introduced by intracardiac injection into 8-week old female NOD/SCID mice at 2×10^5 cells/mouse). […] Bioluminescence imaging was performed after intraperitoneal (i.p.) injection with 200 μL of D-luciferin at 30 mg/ml.

cardiac progenitor iPSCs [10] = test: Cell death of cardiac precursor iPSCs with saline or DOX and maraviroc, propidium iodide; type: cell-based; conditions: 1 μM DOX plus maraviroc (0-100 m), 24 hours, n=3
From the text: (mean+/−SD, n=3). […] Data represents mean+/−SD (n=3).

[11] = Doxorubicin induced cardiac dysfunction, echocardiography 8 weeks after final dose; type: in vivo, mice; conditions: doxorubicin 8×3 mg/kg over 2 weeks with maraviroc 16 mg/kg twice daily gavage vs vehicle; n=15 per group
From the text: A representative example of the echocardiogram is shown. […] Indices include Left Ventricular End Systolic Dimension (LVESD) and Volume (LVESV), which are the diameter and volume of the left ventricle at the end of systole respectively, ejection fraction (EF) which is the percentage of the left ventricular volume expelled with each cardiac contraction (%), and fractional shortening (FS) which is the proportion of diastolic dimension lost in systole (%).

MDA-MB-231 BCa cells = conditions: Veliparib plus maraviroc vs vehicle, 72 hours, n=3
Experimental: After 24 hours, cells were harvested and pelleted by centrifugation. For cell death, cells were incubated with RNase A and propidium iodide to highlight DNA content and nuclear morphology. Cell death was identified by counting cells with nuclei that were smaller and with less DNA content compared to normal diploid cells. […] (mean+/−SD, n=3). […] MDA-MB-231 BCa cells were plated onto 96-well plates, allowed to adhere overnight, then treated with drug for 72 hours. Cells were incubated with DNA damaging agent (Veliparib) and either vehicle or maraviroc. A measurement of cell number was made at both the time of treatment (time 0) and after drug treatment (time 72) using CTG reagent (Promega, Madison, Wis.) to allow for calculation of percent growth inhibition and the dose required to inhibit growth rate by 50% (GR50). […] Data represents mean+/−SD (n=3).

[12] = anthracycline cardiotoxicity myocardium (n=2) vs normal donor heart (n=2)

Compound: COc1ccccc1OCC(O)CN1CCN(CC(=O)Nc2c(C)cccc2C)CC1 (centres unmarked) [Ranolazine dihydrochloride]
- survival of iPSC-CM (iPSC-CM): improved survival
- survival of BCa cells [1]: reduced survival
- DOX-induced cardiac toxicity (levels of apoptosis) ([2]; pretreated with ranolazine dihydrochloride 50 μM, then DOX 2 μM, n=3): reduces DOX-induced cardiac toxicity

Compound: COc1ccccc1OCC(O)CN1CCN(CC(=O)Nc2c(C)cccc2C)CC1 (centres unmarked) [Ranolazine]
- breast cancer cell killing (cell proliferation) [3]: enhance breast cancer cell killing in a dose dependent manner

Compound: COc1cccc2c1C(=O)c1c(O)c3c(c(O)c1C2=O)C[C@@](O)(C(=O)CO)C[C@@H]3O[C@H]1C[C@H](N)[C@H](O)[C@H](C)O1 [doxorubicin]
- Average ejection fraction (EF) (CCR5, CCL3, CCL5): 25-35%
- CCL3 expression in myocardium (CCR5, CCL3, CCL5; [12]): increased
- CCL5 expression in myocardium (CCR5, CCL3, CCL5; [12]): increased
- CCR5 expression in myocardium (CCR5, CCL3, CCL5; [12]): increased
- cardiac function (ejection fraction, ESD, ESV, PWs) [4]: induction of stable mild heart failure
- CCR5 expression in the myocardium (CCR5): increased
- miRNAs targeting CCR5 with decreased expression in the myocardium (miRNAs targeting CCR5): 8/11
- CCR5 expression (% cells expressing CCR5) [5]: significantly increased
- cell death (cardiac progenitor iPSCs [6]; DOX 0-10 m, 24 hours, n=5): promotes cell death in a dose dependent manner
- CCR5 expression (cardiac progenitor iPSCs [6]; DOX 24 hours, n=3): increases CCR5 expression
- proportion of DOX-induced apoptotic cell death ([2]; DOX 10 μM, no pretreatment): 17%
- survival over first 90 days ([7]; doxorubicin 8x 3 mg/kg over 2 weeks with vehicle control): 7/15
- CCL3 mRNA expression in the heart [8]: increased mRNA expression
- CCL5 mRNA expression in the heart [8]: increased mRNA expression
- CCL3 mRNA expression in the heart [9]: increased mRNA expression
- CCL5 mRNA expression in the heart [9]: increased mRNA expression

Compound: maraviroc
- BCa lung metastasis (SUM-159 cells): reduced
- DOX induced cell death (cardiac progenitor iPSCs [10]): significantly, and dose dependently, rescues DOX induced cell death
- survival of iPSC-CM (iPSC-CM): improved survival
- survival of BCa cells [1]: reduced survival
- proportion of DOX-induced apoptotic cell death ([2]; pretreated with maraviroc 100 μM, then DOX 10 μM): 3%
- survival over first 90 days ([7]; doxorubicin 8x 3 mg/kg over 2 weeks with maraviroc 16 mg/kg twice daily gavage): 10/15
- enhanced survival over the vehicle in DOX treated mice ([7]; doxorubicin with maraviroc vs doxorubicin with vehicle): 2.77 fold
- doxorubicin induced cardiac dysfunction (LVESD, LVESV, EF, FS) [11]: prevents doxorubicin induced cardiac dysfunction
- BCa cell killing in combination with veliparib (MDA-MB-231 BCa cells): synergistically promotes BCa cell killing
